Measurements as given in PubChem BioAssay AID2060908 (Molecular Pharmacology Branch, DTP, NCI, 2025).
pIC50: −log10 of the molar value.

Test system: 186277-243-T-J2-PDC complex spheroids, viability
Test: Anticancer human tumor 186277-243-T-J2-PDC patient-derived colon adenocarcinoma cell line growth inhibition [RAS]
Conditions: for viability, T/C: stronger effect = lower value
Text: RAS pathway inhibitors in Combinations in Complex Spheroids
A high-throughput screen of multi-cell type tumor spheroids was designed to identify active combinations of RAS pathway inhibitors and targeted small molecules. Complex spheroids include a stromal component modeled by human endothelial cells (HUVEC) and fibroblasts modeled by human mesenchymal stem cells (MSCs). The concentration ranges selected for each drug and investigational agent were based upon clinically achievable concentrations if the clinical Cmax of the agent was known.
Compounds. The drugs and investigational agents: abemaciclib (NSC768073), cobimetinib (NSC768068), divarasib (GDC6063, NSC841802), docetaxel (NSC628503), GDC-1971 (RLY-1971, NSC841576), gemcitabine (NSC613327), inavolisib (NSC800729), ipatasertib (NSC767898), KB-0742 (NSC834161), MRTX-1133 (NSC836407), osimertinib (NSC779217), RMC-4630 (NSC839698), RMC-6236 (NSC851965), RMC-6291 (NSC852671), Ro-3306 (NSC812927), sapanisertib (NSC764658), SN-38 (NSC673596), staurosporine (NSC755774), SY5609 (NSC837396), and tovorafenib (DAY101, NSC766906), were obtained from the National Cancer Institute (NCI) Developmental Therapeutics Program Chemical Repository. The FDA-approved anticancer drug set is available from the NCI Developmental Therapeutics Program. […] The stock solutions were prepared in dimethyl sulfoxide (DMSO, Sigma-Aldrich, St. Louis, MO, cat. D2650) at 800-fold the tested concentration and stored at -70 degrees C prior to their use. All drugs and investigational agents were tested over a range starting from a high concentration at or near the clinical Cmax and decreasing in half-log increments. If the clinical Cmax for an agent had not been determined, the highest concentration tested was 10 microM.
Cell Culture. All cells were maintained in an incubator at 37 degrees C and 5% CO2 with 95% humidity. The PDC lines were cultured according to standard operating procedures established by the NCI PDMR. All PDCs were thawed and cultured in Matrigel-coated flasks prepared with a working solution of 1X Ham's F-12 nutrient mix, without supplementation (Invitrogen, Waltham, MA, cat. 11765054), 100 U/mL penicillin-streptomycin (Invitrogen, cat. 15140122), and 2.5% Matrigel (Corning Inc., Corning, NY, cat. 354248) for the first three passages. The 362531-283-R-J2-PDC and 782815-120-R-J1-PDC lines were cultured in 6C/Colon 1B media, which includes advanced DMEM/F-12 (Thermo Fisher Scientific, cat. 12634028), 10 mM HEPES (Thermo Fisher Scientific, cat. 15630080), 1X GlutaMAX supplement (Thermo Fisher Scientific, cat. 35050061), 0.1 mg/mL primocin (InvivoGen, San Diego, CA, cat. ant-pm-2), 10% defined fetal bovine serum, heat inactivated (HyClone Laboratories Inc., Logan, UT, cat. SH30070.03HI), 50% L-WRN conditioned media (ATCC, cat. CRL-3276), 1.25 mM N-Acetyl-L-cysteine (Sigma-Aldrich, cat. A9165), 10 mM nicotinamide (Sigma-Aldrich, cat. N0636), 1X B-27 supplement (Thermo Fisher Scientific, cat. 17504044), 1X N-2 supplement (Thermo Fisher Scientific, cat. 17502048), 50 ng/mL human EGF (Thermo Fisher Scientific, cat. PHG0311), and 10 microM Y-27632 dihydrochloride (Tocris Bioscience, cat. 1254). The K12877-001-R-J1-PDC line was cultured in 6I media, which includes all 6C/Colon 1B media plus 10 ng/mL human FGF-10 (PeproTech, cat. 100-26), 1 ng/mL human FGF-2 (PeproTech, cat. 100-18B), 1 µM prostaglandin E2 (Tocris Bioscience, cat. 2296), […] hydrocortisone (Sigma-Aldrich, cat. H4001), and […] bovine insulin (Sigma-Aldrich, cat. I6634). The K86415-001-R-J1-PDC line was cultured in 6D media, which includes all 6C/Colon 1B media components minus the L-WRN conditioned media. The 485176-168-R4-J1-PDC was cultured in PANC media, which includes all 6C/Colon 1B media plus 100 ng/mL human FGF-10 (PeproTech, cat. 100-26), 500 nM SB-431542 (Selleckchem, cat. S1067), and 10 nM gastrin (Tocris Bioscience, cat. 3006). […]
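Further: spheroids exposed to compounds for 7 days before viability read.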

SMILES: CC1(O)CCCC1n1c(=O)c(C(F)F)cc2cnc(NC3CCN(S(C)(=O)=O)CC3)nc21 (configuration not stated) + C=CC(=O)N1CCN(c2nc(OCC3CCCN3C)nc3c(F)c(-c4nc(N)cc(C)c4C(F)(F)F)c(Cl)cc23)C(C)C1
- pIC50 (curve of first compound, second compound 0.00316 µM): 5.39
- pIC50 (curve of first compound, second compound 0.01 µM): 5.31
- pIC50 (curve of first compound, second compound 0.0316 µM): 5.32
- pIC50 (curve of first compound, second compound 0.1 µM): 5.29
- pIC50 (curve of first compound, second compound 0.316 µM): 5.32
- pIC50 (curve of first compound, second compound 1 µM): 5.31
- viability, T/C (second compound 0.00316 µM, first compound 0.0316 µM): 95.5%
- viability, T/C (second compound 0.00316 µM, first compound 0.1 µM): 113%
- viability, T/C (second compound 0.00316 µM, first compound 0.316 µM): 101%
- viability, T/C (second compound 0.00316 µM, first compound 1 µM): 99.3%
- viability, T/C (second compound 0.00316 µM, first compound 3.16 µM): 63%
- viability, T/C (second compound 0.00316 µM, first compound 10 µM): 2.71%
- viability, T/C (second compound 0.01 µM, first compound 0.0316 µM): 92.8%
- viability, T/C (second compound 0.01 µM, first compound 0.1 µM): 96.8%
- viability, T/C (second compound 0.01 µM, first compound 0.316 µM): 93.5%
- viability, T/C (second compound 0.01 µM, first compound 1 µM): 96.8%
- viability, T/C (second compound 0.01 µM, first compound 3.16 µM): 79.3%
- viability, T/C (second compound 0.01 µM, first compound 10 µM): 2.97%
- viability, T/C (second compound 0.0316 µM, first compound 0.0316 µM): 101%
- viability, T/C (second compound 0.0316 µM, first compound 0.1 µM): 135%
- viability, T/C (second compound 0.0316 µM, first compound 0.316 µM): 87.8%
- viability, T/C (second compound 0.0316 µM, first compound 1 µM): 107%
- viability, T/C (second compound 0.0316 µM, first compound 3.16 µM): 77.5%
- viability, T/C (second compound 0.0316 µM, first compound 10 µM): 2.9%
- viability, T/C (second compound 0.1 µM, first compound 0.0316 µM): 95.3%
- viability, T/C (second compound 0.1 µM, first compound 0.1 µM): 109%
- viability, T/C (second compound 0.1 µM, first compound 0.316 µM): 105%
- viability, T/C (second compound 0.1 µM, first compound 1 µM): 89.9%
- viability, T/C (second compound 0.1 µM, first compound 3.16 µM): 87%
- viability, T/C (second compound 0.1 µM, first compound 10 µM): 2.79%
- viability, T/C (second compound 0.316 µM, first compound 0.0316 µM): 91.3%
- viability, T/C (second compound 0.316 µM, first compound 0.1 µM): 118%
- viability, T/C (second compound 0.316 µM, first compound 0.316 µM): 88.1%
- viability, T/C (second compound 0.316 µM, first compound 1 µM): 84.1%
- viability, T/C (second compound 0.316 µM, first compound 3.16 µM): 81.8%
- viability, T/C (second compound 0.316 µM, first compound 10 µM): 2%
- viability, T/C (second compound 1 µM, first compound 0.0316 µM): 117%
- viability, T/C (second compound 1 µM, first compound 0.1 µM): 123%
- viability, T/C (second compound 1 µM, first compound 0.316 µM): 94.9%
- viability, T/C (second compound 1 µM, first compound 1 µM): 115%
- viability, T/C (second compound 1 µM, first compound 3.16 µM): 80.7%
- viability, T/C (second compound 1 µM, first compound 10 µM): 1.52%

SMILES: CC(C)n1nc(-c2ccc3oc(N)nc3c2)c2c(N)ncnc21 + CCn1c(-c2cc(N3CCN(C)CC3)cnc2C(C)OC)c2c3cc(ccc31)-c1csc(n1)CC(NC(=O)C1CC1C)C(=O)N1CCCC(N1)C(=O)OCC(C)(C)C2
- pIC50 (curve of first compound, second compound 0.000949 µM): 7.33
- pIC50 (curve of first compound, second compound 0.003 µM): 7.56
- pIC50 (curve of first compound, second compound 0.00949 µM): > 9.50
- pIC50 (curve of first compound, second compound 0.03 µM): > 9.50
- pIC50 (curve of first compound, second compound 0.0949 µM): > 9.50
- pIC50 (curve of first compound, second compound 0.3 µM): > 9.50
- viability, T/C (second compound 0.000949 µM, first compound 0.000316 µM): 104%
- viability, T/C (second compound 0.000949 µM, first compound 0.001 µM): 109%
- viability, T/C (second compound 0.000949 µM, first compound 0.00316 µM): 87.9%
- viability, T/C (second compound 0.000949 µM, first compound 0.01 µM): 69.8%
- viability, T/C (second compound 0.000949 µM, first compound 0.0316 µM): 62.2%
- viability, T/C (second compound 0.000949 µM, first compound 0.1 µM): 34.8%
- viability, T/C (second compound 0.003 µM, first compound 0.000316 µM): 106%
- viability, T/C (second compound 0.003 µM, first compound 0.001 µM): 104%
- viability, T/C (second compound 0.003 µM, first compound 0.00316 µM): 88.3%
- viability, T/C (second compound 0.003 µM, first compound 0.01 µM): 72.9%
- viability, T/C (second compound 0.003 µM, first compound 0.0316 µM): 46.7%
- viability, T/C (second compound 0.003 µM, first compound 0.1 µM): 20.1%
- viability, T/C (second compound 0.00949 µM, first compound 0.000316 µM): 49.4%
- viability, T/C (second compound 0.00949 µM, first compound 0.001 µM): 47.4%
- viability, T/C (second compound 0.00949 µM, first compound 0.00316 µM): 37.7%
- viability, T/C (second compound 0.00949 µM, first compound 0.01 µM): 30.8%
- viability, T/C (second compound 0.00949 µM, first compound 0.0316 µM): 12.7%
- viability, T/C (second compound 0.00949 µM, first compound 0.1 µM): 5.22%
- viability, T/C (second compound 0.03 µM, first compound 0.000316 µM): 14.8%
- viability, T/C (second compound 0.03 µM, first compound 0.001 µM): 12.5%
- viability, T/C (second compound 0.03 µM, first compound 0.00316 µM): 9.71%
- viability, T/C (second compound 0.03 µM, first compound 0.01 µM): 6.52%
- viability, T/C (second compound 0.03 µM, first compound 0.0316 µM): 4.01%
- viability, T/C (second compound 0.03 µM, first compound 0.1 µM): 2.6%
- viability, T/C (second compound 0.0949 µM, first compound 0.000316 µM): 7.46%
- viability, T/C (second compound 0.0949 µM, first compound 0.001 µM): 6.37%
- viability, T/C (second compound 0.0949 µM, first compound 0.00316 µM): 5.35%
- viability, T/C (second compound 0.0949 µM, first compound 0.01 µM): 3.33%
- viability, T/C (second compound 0.0949 µM, first compound 0.0316 µM): 2.32%
- viability, T/C (second compound 0.0949 µM, first compound 0.1 µM): 1.41%
- viability, T/C (second compound 0.3 µM, first compound 0.000316 µM): 5.75%
- viability, T/C (second compound 0.3 µM, first compound 0.001 µM): 5.69%
- viability, T/C (second compound 0.3 µM, first compound 0.00316 µM): 4.23%
- viability, T/C (second compound 0.3 µM, first compound 0.01 µM): 2.81%
- viability, T/C (second compound 0.3 µM, first compound 0.0316 µM): 2.02%
- viability, T/C (second compound 0.3 µM, first compound 0.1 µM): 1.43%

SMILES: C=CC(=O)N1CCN(c2nc(OCC3CCCN3C)nc3c(F)c(-c4nc(N)cc(C)c4C(F)(F)F)c(Cl)cc23)C(C)C1 (configuration not stated)
- viability, T/C (compound 0.0316 µM): 100% [middle of 12 runs]
- pIC50 (compound alone, run of 06/10/2024): < 6.00
- pIC50 (curve of compound): < 6.00
